Assay results taken from ChEMBL document CHEMBL1201862, “PubChem BioAssay data set” (2004).
Activity calls are given as the source filed them.

Tests used:
INS1 = experiment: beta cell apoptosis inhibitors, cytokine rescue, dose response, luminescence, retest (AID 449756); type: functional, cell-based; details: Rattus norvegicus;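 also: cell death triggered by IL-1 beta plus TNF-alpha plus IFN-gamma mixture; protective hits raise ATP signal compared with cytokine alone wells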
[1] = NIH-3T3 fibroblast cytotoxicity, dose response, cytotoxicity control, cell-based, fluorescence, Alamar Blue, secondary assay (AID 2327); type: functional;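 also: NIH-3T3 mouse fibroblasts cultured with fluconazole at 8 µg/mL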
[2] = C. albicans growth with fluconazole, confirmation, fluorescence, retest (AID 2467); type: functional, cell-based
Melanocortin receptor 4 = Melanocortin receptor 4 (Homo sapiens, UniProt P32245); type: functional, cell-based;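 also: Cell-based assay with luminescence read-out, confirmatory dose-response testing for agonist activity of biased ligands at MC4R; human U2OS cells with tagged receptor and beta-arrestin; potency of agonists that increase receptor coupling to beta-arrestin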
Chain of Melanocortin receptor 4 (P32245 whole entry): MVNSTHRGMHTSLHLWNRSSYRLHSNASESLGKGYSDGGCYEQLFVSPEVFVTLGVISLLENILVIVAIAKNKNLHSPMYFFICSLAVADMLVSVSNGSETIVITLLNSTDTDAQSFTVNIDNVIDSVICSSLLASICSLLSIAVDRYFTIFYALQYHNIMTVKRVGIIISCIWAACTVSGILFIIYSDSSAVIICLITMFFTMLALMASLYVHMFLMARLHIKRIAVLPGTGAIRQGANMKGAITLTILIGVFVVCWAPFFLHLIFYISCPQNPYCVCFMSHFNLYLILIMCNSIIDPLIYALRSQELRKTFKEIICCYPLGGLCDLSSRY

[3] = target: T1, Microphthalmia-associated transcription factor (Homo sapiens, UniProt O75030); experiment: TRPM1 promoter luciferase signal decrease, dose response, MITF inhibitor project, cell-based, SK-MEL-5, cherry-picked, set 3 (AID 493073); type: functional
T1 sequence (O75030 whole entry): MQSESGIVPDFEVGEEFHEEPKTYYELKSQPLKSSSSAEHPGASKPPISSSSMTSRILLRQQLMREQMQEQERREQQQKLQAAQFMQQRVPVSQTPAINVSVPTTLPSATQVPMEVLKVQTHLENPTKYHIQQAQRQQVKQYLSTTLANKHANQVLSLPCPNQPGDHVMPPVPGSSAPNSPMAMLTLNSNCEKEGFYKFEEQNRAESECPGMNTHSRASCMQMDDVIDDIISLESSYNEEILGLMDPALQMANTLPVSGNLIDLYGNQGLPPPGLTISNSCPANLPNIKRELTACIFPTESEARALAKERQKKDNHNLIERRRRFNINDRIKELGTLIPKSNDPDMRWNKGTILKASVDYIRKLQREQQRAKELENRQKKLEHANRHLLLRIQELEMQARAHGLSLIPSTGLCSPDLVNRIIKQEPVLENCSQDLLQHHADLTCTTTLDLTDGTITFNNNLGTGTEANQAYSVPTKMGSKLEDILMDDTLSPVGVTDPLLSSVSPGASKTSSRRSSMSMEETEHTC

[4] = human group III sPLA2 inhibitors, dose response, biochemical, QFRET, IC50 (AID 743457);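 also: green fluorescence rise as the enzyme cleaves BODIPY PC-A2 in liposomes; potency for inhibition of the enzyme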
[5] = target: T2, Trace amine-associated receptor 1 (Homo sapiens, UniProt Q96RJ0); experiment: Fluorescence-based cell-based high throughput dose response assay to identify agonists of the human trace amine associated receptor 1 (TAAR1).; type: functional
T2 sequence (Q96RJ0 whole entry): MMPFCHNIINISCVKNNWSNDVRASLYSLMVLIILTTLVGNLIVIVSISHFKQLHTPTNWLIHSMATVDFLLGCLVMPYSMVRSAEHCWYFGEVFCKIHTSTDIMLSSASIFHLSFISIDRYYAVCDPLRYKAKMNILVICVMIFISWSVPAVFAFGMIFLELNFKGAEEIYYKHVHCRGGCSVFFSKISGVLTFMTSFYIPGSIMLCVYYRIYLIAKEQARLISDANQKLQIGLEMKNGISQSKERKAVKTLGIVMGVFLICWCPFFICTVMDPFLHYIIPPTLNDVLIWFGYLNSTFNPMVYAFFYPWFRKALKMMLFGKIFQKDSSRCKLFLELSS

[6] = cytotoxicity toward NIH3T3 fibroblasts, dose response, counter-screen, cell-based, ATP luminescence, mouse fibroblasts (AID 2010); type: functional;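 also: cells exposed to compound for about 90 hours before reading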
[7] = target: T2, Trace amine-associated receptor 1; experiment: Counterscreen for agonists of the human trace amine associated receptor 1 (hTAAR1): Fluorescence-based cell-based high throughput dose response assay to identify hTAAR1 agonist that also desensitize TAAR1 receptor response.; type: functional
[8] = inhibitors of intracellular T. cruzi replication, confirmation, NIH3T3 host cells, beta-gal luminescence (AID 2044); type: functional, cell-based;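 also: intracellular parasites grown in NIH/3T3 mouse fibroblasts as host cells; luminescent beta-galactosidase reporter signal from transgenic T. cruzi replicating inside host cells; inhibitors lower the luminescence signal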
cells [9] = type: functional, cell-based
cells [10] = type: functional, cell-based; remark: listed apart in the source
Albumin = Albumin (Bos taurus, UniProt P02769); experiment: Counterscreen for inhibitors of T-cell receptor (TCR)-CD3 interaction: Fluorescence-based biochemical high throughput dose response assay to identify inhibitors of T-cell receptor (TCR)-CD3 interaction using a TAMRA-labeled BSA probe.; type: functional
Chain of Albumin (P02769 whole entry): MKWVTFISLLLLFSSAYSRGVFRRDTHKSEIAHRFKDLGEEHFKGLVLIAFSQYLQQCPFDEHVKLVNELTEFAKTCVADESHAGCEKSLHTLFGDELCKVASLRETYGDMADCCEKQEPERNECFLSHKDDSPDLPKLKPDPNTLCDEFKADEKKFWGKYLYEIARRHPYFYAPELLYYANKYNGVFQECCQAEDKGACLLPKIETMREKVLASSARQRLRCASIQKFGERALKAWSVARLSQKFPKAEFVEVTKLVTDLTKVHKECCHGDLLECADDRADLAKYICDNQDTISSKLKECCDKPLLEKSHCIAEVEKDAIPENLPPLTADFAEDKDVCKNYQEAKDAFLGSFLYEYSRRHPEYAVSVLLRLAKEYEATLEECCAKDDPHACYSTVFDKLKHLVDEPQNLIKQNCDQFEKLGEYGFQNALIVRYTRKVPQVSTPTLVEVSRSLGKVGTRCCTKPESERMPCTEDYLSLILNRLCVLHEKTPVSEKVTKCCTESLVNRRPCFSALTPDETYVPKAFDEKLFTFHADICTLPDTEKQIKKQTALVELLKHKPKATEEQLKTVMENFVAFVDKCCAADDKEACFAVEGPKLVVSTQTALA

Aminopeptidase N = target: T3, Aminopeptidase N (Plasmodium falciparum FcB1/Columbia, UniProt O96935); experiment: P. falciparum M1AAP inhibitors, biochemical, fluorogenic H-Leu-NHMec substrate, 1536-well (AID 1445); set-up: species or system Plasmodium falciparum 3D7, 3D7
T3 sequence (O96935 whole entry): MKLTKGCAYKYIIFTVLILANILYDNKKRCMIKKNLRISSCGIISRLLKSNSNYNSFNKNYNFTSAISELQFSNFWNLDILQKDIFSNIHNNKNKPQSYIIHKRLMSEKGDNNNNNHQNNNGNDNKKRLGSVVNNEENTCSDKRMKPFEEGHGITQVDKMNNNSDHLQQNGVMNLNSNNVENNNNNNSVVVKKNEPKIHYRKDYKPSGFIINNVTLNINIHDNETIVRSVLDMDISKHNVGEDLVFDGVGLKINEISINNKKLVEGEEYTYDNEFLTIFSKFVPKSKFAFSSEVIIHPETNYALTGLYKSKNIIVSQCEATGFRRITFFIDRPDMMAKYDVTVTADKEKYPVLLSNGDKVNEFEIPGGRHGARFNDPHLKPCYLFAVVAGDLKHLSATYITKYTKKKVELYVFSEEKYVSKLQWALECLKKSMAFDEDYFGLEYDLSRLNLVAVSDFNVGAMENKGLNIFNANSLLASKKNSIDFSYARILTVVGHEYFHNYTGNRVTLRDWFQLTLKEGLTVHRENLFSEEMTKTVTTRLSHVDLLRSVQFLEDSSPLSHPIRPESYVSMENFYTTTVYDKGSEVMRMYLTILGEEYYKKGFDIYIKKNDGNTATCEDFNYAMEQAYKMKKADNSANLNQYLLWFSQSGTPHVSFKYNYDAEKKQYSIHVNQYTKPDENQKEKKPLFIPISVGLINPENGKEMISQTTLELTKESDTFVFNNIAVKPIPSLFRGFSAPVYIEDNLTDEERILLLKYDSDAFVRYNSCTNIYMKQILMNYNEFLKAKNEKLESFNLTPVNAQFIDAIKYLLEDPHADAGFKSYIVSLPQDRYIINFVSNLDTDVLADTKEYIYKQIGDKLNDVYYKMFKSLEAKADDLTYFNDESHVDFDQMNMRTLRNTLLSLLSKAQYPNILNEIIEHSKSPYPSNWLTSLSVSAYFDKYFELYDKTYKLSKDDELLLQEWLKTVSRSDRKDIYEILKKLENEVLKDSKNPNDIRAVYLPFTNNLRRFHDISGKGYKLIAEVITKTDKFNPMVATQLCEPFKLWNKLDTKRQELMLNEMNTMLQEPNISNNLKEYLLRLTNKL

cells [11] = type: functional
[12] = target: T4, Mannose-6-phosphate isomerase (Homo sapiens, UniProt P34949); experiment: human PMI inhibitors, high substrate, primary screen, biochemical, fluorescence intensity, high mannose 6-phosphate (AID 1220)
T4 sequence (P34949 whole entry): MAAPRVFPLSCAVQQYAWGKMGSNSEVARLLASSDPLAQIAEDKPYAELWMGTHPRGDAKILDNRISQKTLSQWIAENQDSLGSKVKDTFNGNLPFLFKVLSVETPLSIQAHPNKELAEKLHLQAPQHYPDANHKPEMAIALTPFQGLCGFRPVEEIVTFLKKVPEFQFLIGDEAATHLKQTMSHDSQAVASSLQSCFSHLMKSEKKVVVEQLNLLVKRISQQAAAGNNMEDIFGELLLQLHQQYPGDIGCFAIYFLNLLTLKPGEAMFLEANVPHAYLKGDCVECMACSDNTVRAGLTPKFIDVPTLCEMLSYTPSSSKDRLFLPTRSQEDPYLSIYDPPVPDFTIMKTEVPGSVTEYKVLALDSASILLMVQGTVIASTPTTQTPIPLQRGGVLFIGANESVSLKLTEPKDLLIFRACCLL

[13] = HeLa cell cytotoxicity, dose response, cytotoxicity control for MgcRacGAP inhibitor project (AID 624300); type: functional
[14] = target: T5, Rac GTPase-activating protein 1 (Homo sapiens, UniProt Q9H0H5); experiment: MgcRacGAP GTPase-activating activity inhibitors, confirmation, biochemical, ADP Hunter fluorescence, primary and confirmatory (AID 624330); type: functional
T5 sequence (Q9H0H5 whole entry): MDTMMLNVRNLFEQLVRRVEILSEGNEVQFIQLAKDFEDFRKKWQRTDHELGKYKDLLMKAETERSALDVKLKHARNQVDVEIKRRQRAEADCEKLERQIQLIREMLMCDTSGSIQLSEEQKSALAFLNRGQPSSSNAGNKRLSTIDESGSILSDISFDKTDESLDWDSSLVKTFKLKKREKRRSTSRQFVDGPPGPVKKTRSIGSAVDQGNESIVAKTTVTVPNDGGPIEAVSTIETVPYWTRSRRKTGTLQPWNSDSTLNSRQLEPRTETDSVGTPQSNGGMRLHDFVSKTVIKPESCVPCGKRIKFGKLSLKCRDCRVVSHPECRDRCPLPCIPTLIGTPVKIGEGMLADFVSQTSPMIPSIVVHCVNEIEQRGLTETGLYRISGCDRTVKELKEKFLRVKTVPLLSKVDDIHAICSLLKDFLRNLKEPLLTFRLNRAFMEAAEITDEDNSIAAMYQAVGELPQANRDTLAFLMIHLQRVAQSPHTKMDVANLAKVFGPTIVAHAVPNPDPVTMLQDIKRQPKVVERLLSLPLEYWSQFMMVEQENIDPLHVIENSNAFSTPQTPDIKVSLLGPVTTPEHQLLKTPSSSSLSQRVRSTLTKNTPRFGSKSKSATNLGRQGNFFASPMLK

Streptococcus = experiment: Group A Streptococcus viability loss, dose response, counter-screen for streptokinase expression inhibitor project, luminescence, BacTiterGlo (AID 1915); type: functional, organism-based;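 also: potency for reduction of bacterial viability or growth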
[15] = test system: Streptococcus sp. 'group A'; experiment: growth inhibition of control SK(-) GAS strain, dose response, counter-screen for streptokinase expression inhibitor project, luminescence, kanamycin, BacTiterGlo, confirmation (AID 1900); type: functional, organism-based

| SMILES | IC50 [4] | EC50 [5] | IC50 [7] | IC50 (cells [9]) | EC50 (cells [10]) | other results |
| --- | --- | --- | --- | --- | --- | --- |
| CC1CCC(C(C)C)C(OC(=O)C[n+]2cc(-c3ccc(Cl)cc3)n3c2CCCCC3)C1 (centres undefined) | – | – | – | – | – | AC50 (INS1): 4.91 µM (active); EC50 [1]: > 160 µM (inactive); EC50 [2]: 0.459 µM (active); EC50 (Melanocortin receptor 4): > 9.91 µM (active); AC50 [3]: 6.97 µM (active) |
| C=CCNC(S)=NNc1nc(O)c2c(n1)-c1ccccc1CC21CCCCC1 | 73.1 µM (inactive) | – | – | – | – | – |
| Cc1c(Cl)cccc1Nc1nc(NCCO)c2ccccc2n1 | – | 2.94 µM (active) | 6.83 µM (active) | > 29.9 µM (inactive) | > 29.9 µM (inactive) | EC50 [6]: > 60 µM (not active); EC50 [8]: 1.2 µM (active) |
| O=C(CCNC(=O)c1ccc(Br)cc1)NNC(=O)c1ccccc1O | – | – | – | – | – | IC50 (Albumin): > 94.1 µM (inactive) |
| CC(C)c1cc(C(=O)NN=C(S)NCc2ccco2)c(O)c(C(C)C)c1 | 18.8 µM (inactive) | – | – | – | – | – |
| O=c1nc(N2CCCCC2)nc(Nc2ccccc2)[nH]1 | – | 3.44 µM (active) | 4.65 µM (active) | – | – | IC50 (Aminopeptidase N): 51.9 µM (active) |
| COc1ccc(NC(=O)NNC(=O)c2ccc3ccccc3c2O)cc1OC | > 122 µM (inactive) | – | – | – | – | IC50 (Albumin): > 94.1 µM (inactive) |
| Cc1ccc(N2CN(CCc3ccccc3)CN=C2S)cc1 | – | 1.16 µM (active) | 7.74 µM (active) | > 29.9 µM (inactive) | > 29.9 µM (inactive) | – |
| CC1CCCN(CCC(=O)c2ccc(Br)cc2)C1 (centres undefined) | – | 1.67 µM (active) | 20.1 µM (inactive) | > 29.9 µM (inactive) | > 29.9 µM (inactive) | IC50 (cells [11]): 15.2 µM (active); IC50 [12]: > 50 µM (not active) |
| CN(CCc1ccccc1)Cc1c[nH]c2ccccc12 | – | 1.05 µM (active) | 13.2 µM (inactive) | > 29.9 µM (inactive) | > 29.9 µM (inactive) | – |
| O=C(Cc1nnc(NC(=O)Nc2ccccc2)s1)Nc1ccccc1 | – | > 0.0015 µM (active) | > 1.11 µM (active) | > 29.9 µM (inactive) | > 29.9 µM (inactive) | – |
| CN(C)c1ccc(Sc2ccc3nc(N)nc(N)c3c2)cc1 | – | – | – | – | – | CC50 [13]: 100 µM (active); IC50 [14]: 50.2 µM (active) |
| Cn1ccc2c(N3CCCCCCC3)cc3c(c21)C1CCC3O1 (centres undefined) | > 122 µM (inactive) | – | – | – | – | – |
| COc1ccc(-c2cc(C3CCN(CC(O)C(F)(F)F)CC3)[nH]n2)cc1 (centres undefined) | – | 3.52 µM (active) | 7.6 µM (active) | > 29.9 µM (inactive) | > 29.9 µM (inactive) | – |
| CCCCNC(=S)N/N=C/c1cccc(OCC)c1O | > 122 µM (inactive) | – | – | – | – | – |
| O=C(CP(=O)(c1ccccc1)c1ccccc1)N/N=C/c1cc(Br)cc(Br)c1O | – | – | – | – | – | IC50 (Albumin): > 94.2 µM (inactive); EC50 (Streptococcus): 2.32 µM (active); IC50 (Aminopeptidase N): 12.4 µM (active); EC50 [15]: 0.8 µM (active) |
